Results reported in US11938125B2, “Use of Hsp70 as a regulator of enzymatic activity” (Zevra Denmark A/S, priority 2008, dated 2024).

B1: rASM: recombinant acid sphingomyelinase (protein, UniProt P17405 47-631, looked up)
Sphingomyelin …: LALSDSRVLWAPAEAHPLSPQGHPARLHRIVPRLRDVFGWGNLTCPICKGLFTAINLGLKKEPNVARVGSVAIKLCNLLKIAPPAVCQSIVHLFEDDMVEVWRRSVLSPSEACGLLLGSTCGHWDIFSSWNISLPTVPKPPPKPPSPPAPGAPVSRILFLTDLHWDHDYLEGTDPDCADPLCCRRGSGLPPASRPGAGYWGEYSKCDLPLRTLESLLSGLGPAGPFDMVYWTGDIPAHDVWHQTRQDQLRALTTVTALVRKFLGPVPVYPAVGNHESTPVNSFPPPFIEGNHSSRWLYEAMAKAWEPWLPAEALRTLRIGGFYALSPYPGLRLISLNMNFCSRENFWLLINSTDPAGQLQWLVGELQAAEDRGDKVHIIGHIPPGHCLKSWSWNYYRIVARYENTLAAQFFGHTHVDEFEVFYDEETLSRPLAVAFLAPSATTYIGLNPGYRVYQIDGNYSGSSHVVLDHETYILNLTQANIPGAIPHWQLLYRARETYGLPNTLPTAWHNLVYRMRGDMQLFQTFWFLYHKGHPPSEPCGTPCRLATLCAQLSARADSPALCRHLMPDGSLPEAQSLWPRPLFC

Assays:
[1] = tested on: lysosomes of WT and Hsp70 iMEFs; test: Cytosolic cathepsin activity (zFRase) in MEFs; assay type: cell-based, murine; details: 3 h
Method: Cells were treated with cisplatin as indicated, cytosolic fractions were obtained by digitonin treatment and cytosolic cysteine cathepsin (zFRase) and caspase-3-like (DEVDase) activities were determined. […] The total and cytoplasmic (digitonin-extracted) cathepsin activities were measured in digitonin-treated samples using zFR-AFC (Enzyme System Products) probe as described in the art.

lysosomes of Hsp70-MEFs = test: Live single-cell imaging of loss of lysosomal integrity (photo-oxidation) in Hsp70-MEFs; assay type: cell-based, murine; details: subtoxic desipramine 12.5 and 25 μM, 3 h
Method: Assays for lysosomal integrity. Sub-confluent cells incubated with 2 μg/ml acridine orange for 15 min at 37° C. were washed, irradiated and analyzed in Hanks balanced salt solution complemented with 3% fetal calf serum. Cells for single cell imaging were selected from 8 pre-defined areas of each well in transmitted light-mode after which the same cells were immediately visualized and exposed to blue light from USH102 100 W mercury arc burner (Ushio electric) installed in a U-ULS100HG housing (Olympus) for 20 sec. Fluorescence microscopy was performed on Olympus IX-70 inverted microscope with a […] 1×20 objective with NA=0.40. Loss of lysosomal pH gradient was quantified by counting the loss of intense red staining. A more elaborate method for assaying lysosomal integrity was developed to handle the larger lysosomal compartment of the various fibroblasts used in this study. Cells for single cell imaging were selected from 8 pre-defined areas of each well in transmitted light-mode after which the same cells were immediately and continuously exposed to 489 nm light from a 100 mW diode laser while laser scanning micrographs where captured every 330 ms on a Zeiss LSM LIVE DUO confocal system in two channels defined by bandpass filters for 495-555 nm (green) and LP650 nm (Red) light. The resulting timelapse movies where subsequently analysed by the integrated Zeiss LSM DUO software.

WT and Hsp70 iMEFs = test: Viability of MEFs (MTT reduction); assay type: cell-based; details: 3 h
Method: The viability of cells was analyzed by the 3-(4,5-dimethylthiazole-2-yl)-2,5-diphenyltetrazolium bromide (MTT) reduction assay as described previously^67.
Assays for cell viability. Cell density was assessed by the 3-(4,5-dimethylthiazole-2-y)-2,5-[…] (MTT, SIGMA-Aldrich) reduction assay essentially as described in the art. Apoptosis-like cell death was assessed by staining the cells with 0.05 μg/ml Hoechst 33342 (Molecular Probes) and counting cells with condensed nuclei in an inverted Olympus IX-70 fluorescent Microscope (Filter U-MWU 330-385 nm). For each experiment a minimum of eight randomly chosen areas were counted.

[2] = tested on: lysosomes of NPDA patient fibroblasts; test: Lysosomal stability of NPDA fibroblasts (photo-oxidation, live single-cell imaging); assay type: cell-based, human; details: NPDA fibroblasts, 24 h, 300 nM rHsp70, 150 nM rASM or combination
Method: Assays for lysosomal integrity. Sub-confluent cells incubated with 2 μg/ml acridine orange for 15 min at 37° C. were washed, irradiated and analyzed in Hanks balanced salt solution complemented with 3% fetal calf serum. Cells for single cell imaging were selected from 8 pre-defined areas of each well in transmitted light-mode after which the same cells were immediately visualized and exposed to blue light from USH102 100 W mercury arc burner (Ushio electric) installed in a U-ULS100HG housing (Olympus) for 20 sec. Fluorescence microscopy was performed on Olympus IX-70 inverted microscope with a LCPlanF1×20 objective with NA=0.40. Loss of lysosomal pH gradient was quantified by counting the loss of intense red staining. A more elaborate method for assaying lysosomal integrity was developed to handle the larger lysosomal compartment of the various fibroblasts used in this study. Cells for single cell imaging were selected from 8 pre-defined areas of each well in transmitted light-mode after which the same cells were immediately and continuously exposed to 489 nm light from a 100 mW diode laser while laser scanning micrographs where captured every 330 ms on a Zeiss LSM LIVE DUO confocal system in two channels defined by bandpass filters for 495-555 nm (green) and LP650 nm (Red) light. The resulting timelapse movies where subsequently analysed by the integrated Zeiss LSM DUO software. The total and cytoplasmic (digitonin-extracted) cathepsin activities were measured in digitonin-treated samples using zFR-AFC (Enzyme System Products) probe as described in the art.

BMP = test: BIAcore surface plasmon resonance with immobilized BMP-containing LUVs; assay type: binding; details: pH 4.5
Method: (§1) For preparation of LUVs a lipid mixture consisting of 10 mol % sphingomyelin, 50 mol % phosphatidylcholine, 20 mol % cholesterol and 20 mol % BMP dissolved in organic solvents, was dried under a stream of argon and rehydrated in Tris/HCl buffer (pH 7.4) (Kolzer et al., 2004). The mixture was freeze-thawed nine times in liquid nitrogen and then in an incubator at 37° C. After ultrasound bath for 15 min the mixture was passed 21 times through a polycarbonate membrane with a pore diameter of 100 nm. Surface plasmon resonance measurements were performed using a BIAcore 2000 system at 25° C. LUVs (total lipid concentration 0.1 mM) were immobilized on the surface of a L1 sensor chip (BIAcore) in PBS (loading buffer). The running buffer used was sodium acetate buffer (50 mM, pH 4.5). As a control, acid sphingomyelinase (0.2 μM, 60 μl in running buffer) was injected directly on the liposome surface. Response units between 4100 RU-5250RU were obtained. The protein of interest was injected in running buffer at a flow rate of 20 μl/min at the concentrations indicated. After injection a dissociation phase of 10 min was appended.
as §1, with “Surface Plasmon Resonance (BIAcore). For” for “For”, “7.4).” for “7.4) (Kolzer et al., 2004).”, “The protein of interest was injected in running buffer at a flow rate of 20 μl/min at the concentrations indicated. After injection a dissociation phase of 10 min was appended.” left out

[3] = tested on: acid sphingomyelinase (ASM), endogenous mutated and loaded rASM; test: ASM activity of NPDA fibroblasts; assay type: cell-based, human; details: 300 nM rHsp70 48 h, or 150 nM rASM alone or with 300 nM rHsp70 24 h
Excerpt: WT- and Hsp70-MEFs were generated, immortalized and maintained as described in the art. Human NPDA fibroblasts (83/24) originate from a skin biopsy of a patient with hepatosplenomegaly. Recombinant proteins were generated using the pET-16b vector system and Ni^2+-affinity-purification (Novagen), and labeled with Alexa Fluor 488 according to manufacturers protocol (Molecular Probes). To analyze the lysosomal integrity, we developed a real time imaging method of cells stained with acridine orange, a metachromatic weak base that accumulates in the acidic compartment of the cells staining them red and sensitizing them to photo-oxidation. The photo-oxidation-induced loss of the lysosomal pH-gradient and leakage of acridine orange to the cytosol from individual lysosomes was quantified visually as “loss of red dots” in U2-O—S cells and as a decrease in red and an increase in green fluorescence by Zeiss LSM DUO Software in fibroblasts. The total and cytoplasmic (digitonin-extracted) cathepsin activities were measured in digitonin-treated samples using zFR-AFC (Enzyme System Products) probe as described in the art. The tryptophan fluorescence spectra and liposome 900 light scattering were analyzed in a HEPES buffer (20 mM HEPES, 0.1 mM EDTA, pH as indicated) essentially as described in the art. […]

NPDA fibroblasts = test: Lysosomal area of confocal cross sections, NPDA fibroblasts; assay type: cell-based, human; details: NPDA fibroblasts, 24 h, 300 nM rHsp70 or W90F, 150 nM rASM or combination
Excerpt: Immunodetection and microscopy. Primary antibodies used included mouse monoclonal antibodies against Hsp70 (2H9; kindly provided by Boris Margulis, Russian Academy of Sciences, St. Petersburg, Russia), glyceraldehyde-3-phosphate dehydrogenase (GAPDH; Biogenesis), BMP (6C4), lysosomal integral membrane protein-1 (H5C6; developed by J. Thomas August and James E. K. Hildreth and obtained from the Developmental Studies Hybridoma Bank developed under the auspices of the NICHD and maintained by The University of Iowa, Department of Biological Sciences, Iowa City, USA). Proteins separated by 10% SDS-PAGE and transferred to a nitrocellulose membrane were detected by using indicated primary antibodies, appropriate peroxidase-conjugated secondary antibodies from Dako, ECL Western blotting reagents (Amersham), and Luminescent Image Reader (LAS-1000Plus, Fujifilm). For immunocytochemistry Alexa […] or Alexa Fluor®-488-conjugated secondary antibodies were used. Lysotracker Red® was used for live visualization of the lysosomal compartment. Fluorescence images were taken using a Zeiss Axiovert 100M laser scanning microscope. Lysotracker quantification and timelapse movies for lysosomal integrity were done on a Zeiss LSM LIVE DUO system.

| ASM activity [3] | Molecule | permeabilization of lysosomes (leakage of lysosomal cathepsins into the cytosol) [1] | lysosomal stress resistance upon photo-oxidation (lysosomes of Hsp70-MEFs) | desipramine-induced cell death and lysosomal leakage in Hsp70-MEFs as compared to WT-MEFs (WT and Hsp70 iMEFs) | viability (MTT reduction) (WT and Hsp70 iMEFs; MEFs) | lysosomal stability [2] | affinity for BMP compared to that of Hsp70 (BMP) | lysosomal area / volume of the lysosomal compartment (NPDA fibroblasts) |
| --- | --- | --- | --- | --- | --- | --- | --- | --- |
| – | CNCCCN1c2ccccc2CCc2ccccc21 [desipramine] | massive permeabilization of lysosomes | reverted the lysosomal stress resistance of Hsp70-MEFs to the level of WT-MEFs | significantly reduced | reduced the viability of MEFs in a dose-dependent manner | – | – | – |
| increased ASM activity | B1 | – | – | – | – | ability to stabilize the lysosomes | half | normalize the volume of the dramatically enlarged lysosomal compartment |
